The values that follow come from patent US20260049079A1, “CHIRAL SYNTHESIS OF FUSED BICYCLIC RAF INHIBITORS” (Jazz Pharmaceuticals Ireland Limited, priority 2020, published 2026).

One data set relates to HCT-116 cells. The data set is described as follows: HCT-116 CellTiter-Glo 3D Cell Proliferation Assay. It counts as cell-based. As to conditions: Homo sapiens, HCT116 spheroids, read-out: 3D HCT116 pGI50 (converted).
The test system of a further data set is WiDr cells. Briefly: WiDr CellTiter-Glo 3D Cell Proliferation Assay. It is filed as cell-based. As to conditions: Homo sapiens, WiDr spheroids, read-out: 3D WiDr pGI50 (converted).
The nature of the next data set: FeSSIF Solubility Assay. As to conditions: fed state simulated intestinal fluid (FeSSIF), thermodynamic from solid, pH 5 acetate buffer, 37° C., read-out: FESSIF sol. It is filed as physicochemical. Here is the method:
1 mL of fed state simulated intestinal fluid (FeSSIF), prepared using FaSSIF/FeSSIF/FaSSGF powder (Biorelevant.com) and pH 5 acetate buffer, was added to 1.0 mg of compound and then incubated for 24 h (Bioshake iQ, 650 rpm, 37° C.). Following filtration under positive pressure, the concentration of compound in solution was assessed by LC-UV in comparison to the response for a calibration standard of known concentration (250 μM). FeSSIF solubility results are described in Table 34D.

Structures are written as SMILES. In brackets after ≈: the same amount, converted by molar mass.

Method for HCT-116 cells: HCT-116 CellTiter-Glo 3D) Cell Proliferation Assay
On the first day, HCT-116 cells were harvested, resuspended in growth medium (McCoys5A with Glutamax (Life Technologies 36600021) with 10% heat-inactivated fetal bovine serum (Sigma F9665)), and counted. Cells were plated in 100 μl per well in each well of a Corning 7007 96-well clear round bottom Ultra-Low Attachment plate (VWR 444-1020) to a final density of 1000 cells per well. Cells were seeded for pre- and post-treatment readouts. The cells were then incubated at 37° C. and 5% CO2 for 3 days (72 hours) to allow spheroid formation. After 72 hours, the plate seeded for a pre-treatment read was removed from the incubator to allow equilibration to room temperature for 30 minutes, before CellTitre-Glo® reagent was added to each well. The plates were incubated at room temperature for 5 minutes shaking at 300 rpm, followed by an incubation of 25 minutes on the benchtop before being read on the Envision reader (Perkin Elmer) as described below. On the same day, the cells plated for the post-treatment readout were dosed with compounds to produce a 9-point dose response, where the top concentration was 15 M and following concentrations were at ½ log dilution intervals. […] Therefore, plates were read on an EnVision reader (Perkin Elmer) and luminescence signals were recorded. […]
Method for WiDr cells: The CellTitre Glo® reagent lyses the cells and contains luciferin and a luciferase (Ultra-Glo™ Recombinant Luciferase), which in the presence of ATP and oxygen can produce bioluminescence from luciferin. Therefore, plates were read on an EnVision reader (Perkin Elmer) and luminescence signals were recorded. Cell proliferation was determined on 4 days after dosing relative to the pre-treatment read. All data were analyzed using the Dotmatics or GraphPad Prism software packages. Inhibition of proliferation was assessed by determination of the GIso value, which was defined as the concentration of compound required to decrease the level of cell proliferation by 50% when compared to DMSO control.
The human WiDr colorectal adenocarcinoma cell line (ATCC CCL-218) endogenously expresses the BRAF^V600E mutation, which leads to enhanced survival and proliferative signaling.

Regarding `O=C1CCc2c(Oc3ccc4c(c3)C[C@@H](c3nc(-c5ccc(F)cc5)c[nH]3)CO4)ccnc2N1` (single isomer, unassigned) [Compound A-1], the results for the GI50 in the data set on HCT-116 cells and in the data set with WiDr cells were 40.7 nM and 52.5 nM, respectively. The solubility thermodynamic at 24 h in the data set “FeSSIF Solubility Assay” is 9.9 µg/mL (≈ 21.7 µM).
In the case of `O=C1CCc2c(Oc3ccc4c(c3)C[C@H](c3nc(-c5ccc(F)cc5)c[nH]3)CO4)ccnc2N1` (single isomer, unassigned) [Compound A-2], the GI50 in the data set with HCT-116 cells was 263 nM; in the data set on WiDr cells it was 537 nM. Besides, in “FeSSIF Solubility Assay”, the solubility thermodynamic at 24 h is 9.4 µg/mL (≈ 20.6 µM).
